Experimental data as given in patent US4451448A, “1-Substituted tricyclic quinazolinones useful as tranquilizers” (Sandoz, Inc., priority 1982, dated 1984).

System: isolated calf brain benzodiazepine receptors
Test: Flunitrazepam Receptor Binding Assay (FBA TEST No. 1), displacement of 3H-flunitrazepam
Settings: compound at final concentration of 1×10^-6 M; calf caudate tissue; 1 µM

SMILES | percent specifically bound 3H-flunitrazepam compared to control
C=CCN1CCn2c1nc1ccc(Cl)cc1c2=O [Example 1, 1-allyl-7-chloro-2,3-dihydro-imidazo[2,1-b]quinazolin-5(1H)-one] | 13 % of control
O=c1c2cc(Cl)ccc2nc2n1CCN2C1CCCC1 [Example 2, 7-chloro-1-cyclopentyl-2,3-dihydro-imidazo[2,1-b]quinazolin-5(1H)-one] | 19 % of control
